Reference: patent US20100098782A1, “USE OF SODIUM ACID SULFATE AS A DISINFECTANT” (JOHNSONDIVERSEY, INC., priority 2008, published 2010)
“And” between values parts separate entries of the source, which are not always exact repeats. Identical values can stand only once.

Key:
[1] = test system: organisms on freshly killed whole birds (3M Aerobic Count Petrifilm); assay: Whole bird carcass dip test, aerobic count; conditions: for Organisms/Bird: individual birds
Procedure: In order to test the efficacy of the composition of the present invention for use in treating animal carcasses, freshly killed whole birds were dipped and completely immersed in 13 liters of treatment solution for 10 seconds. […] The growth medium was 3M Aerobic Count Petrifilm. The incubation was 2-3 days at 35° C. […] The same test was repeated using commercially available products, […]12, and Eden, comparing these with sodium acid sulfate and sodium acid sulfate in combination with citric acid.

[2] = test system: Salmonella enteriditis; assay: Antimicrobial effectiveness, suspension contact test; assay type: cell-based
Procedure: In order to determine the antimicrobial effectiveness of the present invention, Salmonella enteriditis at 120,000,000 organisms per milliliter was contacted for 30 seconds, 1 minute, or 2 minutes, with 2,000 ppm SAS, or 4,000 ppm SAS at the indicated pH. The neutralizer was 0.2M Phosphate Buffer, pH 7.0, and the growth medium was 3M Aerobic Count Petrifilm using an incubation time of 4 days at 35° C.

[3] = test system: Escherichia coli, ATCC #11229; assay: Modification of the Germicidal and Detergent Sanitizing Action of Disinfectants (A.O.A.C.); assay type: cell-based; conditions: 4000 ppm, 25° C.
Procedure: The germicidal effectiveness of 4000 ppm of sodium acid sulfate was tested at various levels of pH. The pH of the solutions was adjusted by addition of sodium hydroxide. The test method was A Modification of the Germicidal and Detergent Sanitizing Action of Disinfectants, A.O.A.C., 17th Edition 2000. The test organism was Escherichia coli, ATCC #11229 (560,000 org/ml), which was contacted with the sodium acid sulfate for 10 seconds and 30 seconds at 25° C. The recovery medium was Tryptone Glucose Extract Agar with Asolectin and Tween 80. Phosphate Buffer 0.2M was employed.

[4] = 2400 ppm Lactic Acid, 10 seconds dip, pre 5 bird dip pH 1.80, post pH 1.96
[5] = 4800 ppm Lactic Acid, 10 seconds dip, pre 5 bird dip pH 1.80, post pH 1.96
[6] = 2000 ppm, pH 1.5, 30 seconds contact
[7] = 2000 ppm, pH 1.5, 2 minutes contact
[8] = 2000 ppm, pH 1.75, 30 seconds contact
[9] = 2000 ppm, pH 1.75, 1 minute contact
[10] = 2000 ppm, pH 2.0, 30 seconds contact
[11] = 2000 ppm, pH 2.0, 1 minute contact
[12] = 2000 ppm, pH 2.0, 2 minutes contact
[13] = 2000 ppm, pH 2.25, 30 seconds contact
[14] = 2000 ppm, pH 2.25, 1 minute contact
[15] = 2000 ppm, pH 2.25, 2 minutes contact
[16] = 2000 ppm, pH 2.5, 30 seconds contact
[17] = 2000 ppm, pH 2.5, 1 minute contact
[18] = 2000 ppm, pH 2.5, 2 minutes contact
[19] = 4000 ppm, pH 1.5, 30 seconds contact
[20] = 4000 ppm, pH 1.75, 30 seconds contact
[21] = 4000 ppm, pH 2.0, 30 seconds contact
[22] = 4000 ppm, pH 2.25, 30 seconds contact
[23] = 4000 ppm, pH 2.25, 1 minute contact
[24] = 4000 ppm, pH 2.25, 2 minutes contact
[25] = 4000 ppm, pH 2.5, 30 seconds contact
[26] = 4000 ppm, pH 2.5, 1 minute contact
[27] = 4000 ppm, pH 2.5, 2 minutes contact
[28] = 2000 ppm SAS, 10 seconds dip, pre 5 bird dip pH 1.60, post pH 1.78
[29] = 2000 ppm SAS, repeated test (Table 5)
[30] = 4000 ppm SAS, 10 seconds dip, pre 5 bird dip pH 1.56, post pH 1.75

Question: How did the “Average Organisms/Bird” value [1, 4] turn out when `CC(O)C(=O)O` (stereo not drawn) [Lactic Acid, lactic acid, reference compound] was run?
Answer: 2,054,800 Organisms/Bird

Question: What about the Organisms/Bird [1, 4] of the same compound?
Answer: 600,000 Organisms/Bird and 1,074,000 Organisms/Bird and 2,120,000 Organisms/Bird and 3,240,000 Organisms/Bird (2×)

Question: And the “% Reduction” value ([1]; 2400 ppm Lactic Acid, 10 seconds dip, pre 5 bird dip pH 1.80, post pH 1.96, vs no-treatment control)?
Answer: 10.8%

Question: What about the “Average Organisms/Bird” value [1, 5] of the same compound?
Answer: 1,430,000 Organisms/Bird

Question: What about the Organisms/Bird [1, 5] of the same compound?
Answer: 1,000,000 Organisms/Bird and 1,800,000 Organisms/Bird and 1,400,000 Organisms/Bird and 1,520,000 Organisms/Bird

Question: And the “% Reduction” value ([1]; 4800 ppm Lactic Acid, 10 seconds dip, pre 5 bird dip pH 1.80, post pH 1.96, vs no-treatment control)?
Answer: 37.9%

Question: What about the “antimicrobial effect in carcass dip (in words)” value ([1]; lactic acid itself (2400 and 4800 ppm)) of the same compound?
Answer: relatively little antimicrobial effect

Question: Which results are given for `O=S(=O)([O-])O.[Na+]` [SAS, sodium acid sulfate]?
Answer: % Reduction [2, 6]: 90.250% and 85.250%; Survivors [2, 6]: 11,700,000 org/ml and 17,700,000 org/ml; % Reduction ([2]; 2000 ppm, pH 1.5, 1 minute contact): 99.962% and 99.983%; % Reduction [2, 7]: >99.999%; Survivors [2, 7]: 10 org/ml and 20 org/ml; % Reduction [2, 8]: <79.167%; Survivors [2, 8]: >25,000,000 org/ml; % Reduction [2, 9]: <97.917%; Survivors [2, 9]: >25,000,000 org/ml; % Reduction ([2]; 2000 ppm, pH 1.75, 2 minutes contact): 98.192% and 98.817%; % Reduction [2, 10]: <79.167%; Survivors [2, 10]: >25,000,000 org/ml; % Reduction [2, 11]: <97.917%; Survivors [2, 11]: >25,000,000 org/ml; % Reduction [2, 12]: <97.917%; Survivors [2, 12]: >25,000,000 org/ml; % Reduction [2, 13]: <79.167%; Survivors [2, 13]: >25,000,000 org/ml; % Reduction [2, 14]: <97.917%; Survivors [2, 14]: >25,000,000 org/ml; % Reduction [2, 15]: <97.917%; Survivors [2, 15]: >25,000,000 org/ml; % Reduction [2, 16]: <79.167%; Survivors [2, 16]: >25,000,000 org/ml; % Reduction [2, 17]: <97.917%; Survivors [2, 17]: >25,000,000 org/ml; % Reduction [2, 18]: <97.917%; Survivors [2, 18]: >25,000,000 org/ml; % Reduction [2, 19]: 96.167% and 92.833%; Survivors [2, 19]: 4,600,000 org/ml and 8,600,000 org/ml; % Reduction ([2]; 4000 ppm, pH 1.5, 1 minute contact): 99.994% and 99.976%; % Reduction ([2]; 4000 ppm, pH 1.5, 2 minutes contact): >99.999% and 99.997%; % Reduction [2, 20]: 94.250% and 92.917%; Survivors [2, 20]: 6,900,000 org/ml and 8,500,000 org/ml; % Reduction ([2]; 4000 ppm, pH 1.75, 1 minute contact): 96.667% and 98.417%; % Reduction ([2]; 4000 ppm, pH 1.75, 2 minutes contact): 98.933% and 98.833%; % Reduction [2, 21]: 83.250% and 84.500%; Survivors [2, 21]: 20,100,000 org/ml and 18,600,000 org/ml; % Reduction ([2]; 4000 ppm, pH 2.0, 1 minute contact): 94.583% and 97.833%; % Reduction ([2]; 4000 ppm, pH 2.0, 2 minutes contact): 96.167% and 91.417%; % Reduction [2, 22]: <79.167%; Survivors [2, 22]: >25,000,000 org/ml; % Reduction [2, 23]: <79.167%; Survivors [2, 23]: >25,000,000 org/ml; % Reduction [2, 24]: <79.167%; Survivors [2, 24]: >25,000,000 org/ml; % Reduction [2, 25]: <79.167%; Survivors [2, 25]: >25,000,000 org/ml; % Reduction [2, 26]: <79.167%; Survivors [2, 26]: >25,000,000 org/ml; % Reduction [2, 27]: <79.167%; Survivors [2, 27]: >25,000,000 org/ml; antimicrobial activity (in words) ([2]; at less than pH 2.5 and, particularly less than 2.0): greatly enhanced; % Reduction ([3]; pH 1.49, 10 seconds contact): 92.321%; Survivors ([3]; pH 1.49, 10 seconds contact): 43,000,000 org/ml; % Reduction ([3]; pH 1.49, 30 seconds contact): 92.804%; Survivors ([3]; pH 1.49, 30 seconds contact): 40,300,000 org/ml; % Reduction ([3]; pH 1.59, 10 seconds contact): 88.696%; Survivors ([3]; pH 1.59, 10 seconds contact): 63,300,000 org/ml; % Reduction ([3]; pH 1.59, 30 seconds contact): 89.732%; Survivors ([3]; pH 1.59, 30 seconds contact): 57,500,000 org/ml; % Reduction ([3]; pH 1.70, 10 seconds contact): 90.750%; Survivors ([3]; pH 1.70, 10 seconds contact): 51,800,000 org/ml; % Reduction ([3]; pH 1.70, 30 seconds contact): 91.785%; Survivors ([3]; pH 1.70, 30 seconds contact): 46,000,000 org/ml; % Reduction ([3]; pH 1.79, 10 seconds contact): 92.321%; Survivors ([3]; pH 1.79, 10 seconds contact): 43,000,000 org/ml; % Reduction ([3]; pH 1.79, 30 seconds contact): 93.839%; Survivors ([3]; pH 1.79, 30 seconds contact): 34,500,000 org/ml; % Reduction ([3]; pH 1.89, 10 seconds contact): 92.804%; Survivors ([3]; pH 1.89, 10 seconds contact): 40,300,000 org/ml; % Reduction ([3]; pH 1.89, 30 seconds contact): 94.375%; Survivors ([3]; pH 1.89, 30 seconds contact): 31,500,000 org/ml; % Reduction ([3]; pH 1.99, 10 seconds contact): 68.750%; Survivors ([3]; pH 1.99, 10 seconds contact): 175,000,000 org/ml; % Reduction ([3]; pH 1.99, 30 seconds contact): 81.785%; Survivors ([3]; pH 1.99, 30 seconds contact): 102,000,000 org/ml; % Reduction ([3]; pH 2.11, 10 seconds contact): 81.607%; Survivors ([3]; pH 2.11, 10 seconds contact): 103,000,000 org/ml; % Reduction ([3]; pH 2.11, 30 seconds contact): 82.857%; Survivors ([3]; pH 2.11, 30 seconds contact): 96,000,000 org/ml; % Reduction ([3]; pH 2.18, 10 seconds contact): 79.464%; Survivors ([3]; pH 2.18, 10 seconds contact): 115,000,000 org/ml; % Reduction ([3]; pH 2.18, 30 seconds contact): 98.089%; Survivors ([3]; pH 2.18, 30 seconds contact): 107,000,000 org/ml; % Reduction ([3]; pH 2.29, 10 seconds contact): 81.250%; Survivors ([3]; pH 2.29, 10 seconds contact): 105,000,000 org/ml; % Reduction ([3]; pH 2.29, 30 seconds contact): 86.250%; Survivors ([3]; pH 2.29, 30 seconds contact): 77,000,000 org/ml; % Reduction ([3]; pH 2.39, 10 seconds contact): 76.250%; Survivors ([3]; pH 2.39, 10 seconds contact): 133,000,000 org/ml; % Reduction ([3]; pH 2.39, 30 seconds contact): 77.142%; Survivors ([3]; pH 2.39, 30 seconds contact): 128,000,000 org/ml; % Reduction ([3]; pH 2.49, 10 seconds contact): 71.607%; Survivors ([3]; pH 2.49, 10 seconds contact): 159,000,000 org/ml; % Reduction ([3]; pH 2.49, 30 seconds contact): 72.142%; Survivors ([3]; pH 2.49, 30 seconds contact): 156,000,000 org/ml; Average Organisms/Bird [1, 28]: 576,000 Organisms/Bird; Organisms/Bird [1, 28]: 584,000 Organisms/Bird and 536,000 Organisms/Bird and 660,000 Organisms/Bird and 520,000 Organisms/Bird and 580,000 Organisms/Bird; % Reduction ([1]; 2000 ppm SAS, 10 seconds dip, pre 5 bird dip pH 1.60, post pH 1.78, vs no-treatment control): 75.0%; Average Organisms/Bird [1, 29]: 246,400 Organisms/Bird; Organisms/Bird [1, 29]: 556,000 Organisms/Bird and 128,000 Organisms/Bird and 264,000 Organisms/Bird and 88,000 Organisms/Bird and 196,000 Organisms/Bird; % Reduction ([1]; 2000 ppm SAS, repeated test (Table 5), vs wash control): 88.7%; Average Organisms/Bird [1, 30]: 618,400 Organisms/Bird; Organisms/Bird [1, 30]: 396,000 Organisms/Bird and 528,000 Organisms/Bird and 392,000 Organisms/Bird and 476,000 Organisms/Bird and 1,300,000 Organisms/Bird; % Reduction ([1]; 4000 ppm SAS, 10 seconds dip, pre 5 bird dip pH 1.56, post pH 1.75, vs no-treatment control): 73.2%; performance in carcass dip (in words) ([1]; both 2000 ppm and 4000 ppm): perform well
